Target: T1, full length MPS1 (Homo sapiens, UniProt P33981)
T1 sequence (P33981 1-857): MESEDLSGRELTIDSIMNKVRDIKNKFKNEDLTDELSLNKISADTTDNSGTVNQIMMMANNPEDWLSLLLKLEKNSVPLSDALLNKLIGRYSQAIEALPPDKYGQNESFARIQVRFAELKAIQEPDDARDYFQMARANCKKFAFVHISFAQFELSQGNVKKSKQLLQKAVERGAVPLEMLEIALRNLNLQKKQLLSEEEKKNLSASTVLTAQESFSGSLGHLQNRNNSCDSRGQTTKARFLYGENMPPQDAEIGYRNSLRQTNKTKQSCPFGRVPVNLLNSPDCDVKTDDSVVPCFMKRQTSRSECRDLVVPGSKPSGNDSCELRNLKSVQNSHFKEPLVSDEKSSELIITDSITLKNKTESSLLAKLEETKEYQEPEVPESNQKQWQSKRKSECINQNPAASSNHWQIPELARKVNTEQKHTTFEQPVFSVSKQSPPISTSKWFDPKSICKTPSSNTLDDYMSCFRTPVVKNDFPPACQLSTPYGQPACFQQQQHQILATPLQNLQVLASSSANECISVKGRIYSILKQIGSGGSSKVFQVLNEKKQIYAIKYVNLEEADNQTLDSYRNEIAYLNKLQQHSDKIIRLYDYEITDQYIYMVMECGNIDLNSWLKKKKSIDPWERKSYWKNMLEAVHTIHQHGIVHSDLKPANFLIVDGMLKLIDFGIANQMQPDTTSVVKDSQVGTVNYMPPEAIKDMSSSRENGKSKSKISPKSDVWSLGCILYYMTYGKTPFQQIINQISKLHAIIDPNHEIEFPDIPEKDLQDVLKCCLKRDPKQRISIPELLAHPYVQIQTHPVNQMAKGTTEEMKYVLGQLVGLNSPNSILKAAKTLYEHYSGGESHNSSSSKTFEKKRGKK
Experiment: biochemical

IC50 | SMILES
548 nM | Cn1cc(-c2ccc(Cl)c(Nc3cc4[nH]c(-c5cnn(C)c5)cc4cn3)c2)cn1 [Example 184, N-(2-Chloro-5-(1-methyl-1H-pyrazol-4-yl)phenyl)-2-(1-methyl-1H-pyrazol-4-yl)-1H-pyrrolo[3,2-c]pyridin-6-amine]
75 nM | COc1cc(-c2ccc(Nc3cc4c(cn3)cc(-c3cnn(C)c3)n4C(=O)OC(C)(C)C)c(Cl)c2)ccn1 [Example 46]
12 nM | Cn1cc(-c2cc3cnc(Nc4ccc(C(=O)N5CCCC5)cc4Cl)cc3[nH]2)cn1 [Example 145, (3-Chloro-4-(2-(1-methyl-1H-pyrazol-4-yl)-1H-pyrrolo[3,2-c]pyridin-6-ylamino)phenyl)(pyrrolidin-1-yl)methanone]
53 nM | COc1ccc(Nc2cc3[nH]c(-c4cnn(C)c4)cc3cn2)c(F)c1 [Example 155, N-(2-Fluoro-4-methoxyphenyl)-2-(1-methyl-1H-pyrazol-4-yl)-1H-pyrrolo[3,2-c]pyridin-6-amine]
8.4 nM | CN(C)C(=O)c1ccc(Nc2cc3[nH]c(-c4cnn(C)c4)c(Cl)c3cn2)c(Cl)c1 [Example 190, 3-Chloro-4-(3-chloro-2-(1-methyl-1H-pyrazol-4-yl)-1H-pyrrolo[3,2-c]pyridin-6-ylamino)-N,N-dimethylbenzamide]
9 nM | Cn1cc(-c2cc3cnc(Nc4ccc(-c5cncs5)cc4Cl)cc3n2C(=O)OC(C)(C)C)cn1 [Example 24]
27 nM | CNC(=O)c1ccc(Nc2cc3[nH]c(-c4cnn(C)c4)cc3cn2)c(OC)c1 [Example 133, 3-Methoxy-N-methyl-4-(2-(1-methyl-1H-pyrazol-4-yl)-1H-pyrrolo[3,2-c]pyridin-6-ylamino)benzamide]
7 nM | COc1cc(-c2cnn(C)c2)ccc1Nc1cc2c(cn1)cc(-c1cnn(C)c1)n2C(=O)OC(C)C [Example 102]
2 nM | CS(=O)(=O)c1ccc(Nc2cc3[nH]c(-c4cn[nH]c4)cc3cn2)c(Cl)c1 [Example 154, N-(2-chloro-4-(methylsulfonyl)phenyl)-2-(1H-pyrazol-4-yl)-1H-pyrrolo[3,2-c]pyridin-6-amine]
26 nM | COc1ccc(Nc2cc3c(cn2)cc(-c2cn[nH]c2)n3C)cc1OC [Example 126, N-(3,4-dimethoxyphenyl)-1-methyl-2-(1H-pyrazol-4-yl)-1H-pyrrolo[3,2-c]pyridin-6-amine]
2 nM | Cc1ncc(-c2ccc(Nc3cc4c(cn3)cc(-c3cnco3)n4C(=O)OC(C)(C)C)c(Cl)c2)n1C [Example 107]
55 nM | COc1cc(CN(C)C)ccc1Nc1cc2[nH]c(-c3cnn(C)c3)cc2cn1 [Example 139, N-(4-((dimethylamino)methyl)-2-methoxyphenyl)-2-(1-methyl-1H-pyrazol-4-yl)-1H-pyrrolo[3,2-c]pyridin-6-amine]
16 nM | COc1ccc(-c2ccc(Nc3cc4c(cn3)cc(-c3cnn(C)c3)n4C(=O)OC(C)(C)C)c(Cl)c2)cn1 [Example 48]
20 nM | CN1CCN(C(=O)c2ccc(Nc3cc4[nH]c(-c5cnn(C)c5)cc4cn3)c(Cl)c2)CC1 [Example 146, (3-Chloro-4-(2-(1-methyl-1H-pyrazol-4-yl)-1H-pyrrolo[3,2-c]pyridin-6-ylamino)phenyl)(4-methylpiperazin-1-yl) methanone]
24 nM | Cn1cc(-c2cc3cnc(Nc4ccc(S(C)(=O)=O)cc4Cl)cc3[nH]2)cn1 [Example 131, N-(2-Chloro-4-(methylsulfonyl)phenyl)-2-(1-methyl-1H-pyrazol-4-yl)-1H-pyrrolo[3,2-c]pyridin-6-amine]
10 nM | COc1cc(C(=O)N2CC(OC)C2)ccc1Nc1cc2c(cn1)cc(-c1cnco1)n2C(=O)OC(C)(C)C [Example 97]
69 nM | Cn1cc(-c2[nH]c3cc(Nc4ccc(S(C)(=O)=O)cc4Cl)ncc3c2Cl)cn1 [Example 197, 3-Chloro-N-(2-chloro-4-(methylsulfonyl)phenyl)-2-(1-methyl-1H-pyrazol-4-yl)-1H-pyrrolo[3,2-c]pyridin-6-amine]
67 nM | CN(C)C(=O)c1ccc(Nc2cc3c(cn2)cc(-c2cnn(C)c2)n3CC2CCCCC2)c(Cl)c1 [Example 71]
3 nM | Cn1cc(-c2cc3cnc(Nc4ccc(-c5cncn5C)cc4Cl)cc3n2C2CCCC2)cn1 [Example 80]
92 nM | CN(C)C(=O)c1ccc(Nc2cc3c(cn2)cc(-c2cnn(C)c2)n3S(=O)(=O)C2CCCC2)c(Cl)c1 [Example 110, 3-Chloro-4-(1-(cyclopentylsulfonyl)-2-(1-methyl-1H-pyrazol-4-yl)-1H-pyrrolo[3,2-c]pyridin-6-ylamino)-N,N-dimethylbenzamide]
5 nM | Cn1cncc1-c1ccc(Nc2cc3[nH]c(-c4cnco4)cc3cn2)c(Cl)c1 [Example 185, N-(2-Chloro-4-(1-methyl-1H-imidazol-5-yl)phenyl)-2-(oxazol-5-yl)-1H-pyrrolo[3,2-c]pyridin-6-amine]
2 nM | Cc1ncc(-c2ccc(Nc3cc4c(cn3)cc(-c3cnn(C)c3)n4C(=O)OC(C)C)c(Cl)c2)n1C [Example 83]

IC50 | SMILES
1 nM | Cc1ncc(-c2ccc(Nc3cc4[nH]c(-c5cnco5)cc4cn3)c(Cl)c2)n1C [Example 186, N-(2-Chloro-4-(1,2-dimethyl-1H-imidazol-5-yl)phenyl)-2-(oxazol-5-yl)-1H-pyrrolo[3,2-c]pyridin-6-amine]
7 nM | CN(C)C(=O)c1ccc(Nc2cc3c(cn2)cc(-c2cnn(C)c2)n3C2CCCC2)c(Cl)c1 [Example 73]
6 nM | CN(C)C(=O)c1ccc(Nc2cc3c(cn2)cc(-c2cnn(C)c2)n3C(=O)OC(C)(C)C)c(OC(F)(F)F)c1 [Example 3]
537 nM | Cn1cc(-c2ccc(Cl)c(Nc3cc4c(cn3)cc(-c3cnn(C)c3)n4C(=O)OC(C)(C)C)c2)cn1 [Example 62]
7 nM | Cc1c(-c2ccc(Nc3cc4c(cn3)cc(-c3cnn(C)c3)n4C(=O)OC(C)(C)C)c(Cl)c2)cnn1C [Example 20]
3 nM | Cn1cc(-c2cc3cnc(Nc4ccc(-c5nccn5C)cc4Cl)cc3n2C(=O)OC(C)(C)C)cn1 [Example 22]
12 nM | Cn1cc(-c2ccc(Nc3cc4c(cn3)cc(-c3cnn(C)c3)n4C(=O)OC3CCCC3)c(Cl)c2)cn1 [Example 75]
6 nM | Cn1cc(-c2cc3cnc(Nc4ccc(C(=O)N5CC(F)(F)C5)cc4Cl)cc3n2C(=O)OC(C)(C)C)cn1 [Example 50]
127 nM | CN(C)C(=O)c1ccc(Nc2cc3c(cn2)c(Cl)c(-c2cnn(C)c2)n3C(=O)OC(C)(C)C)c(Cl)c1 [Example 65]
19 nM | Cn1cc(-c2cc3cnc(Nc4ccc(-c5ccnn5C)cc4Cl)cc3n2C(=O)OC(C)(C)C)cn1 [Example 44]
159 nM | Fc1ccc(Nc2cc3[nH]c(-c4cn[nH]c4)cc3cn2)nc1 [Example 189, N-(5-fluoropyridin-2-yl)-2-(1H-pyrazol-4-yl)-1H-pyrrolo[3,2-c]pyridin-6-amine]
20 nM | CN(C)C(=O)c1cc(Cl)c(Nc2cc3c(cn2)cc(-c2cnn(C)c2)n3C(=O)OC(C)(C)C)c(Cl)c1 [Example 13]
10 nM | COC1CN(C(=O)c2ccc(Nc3cc4[nH]c(-c5cnn(C)c5)cc4cn3)c(Cl)c2)C1 [Example 142, (3-Chloro-4-(2-(1-methyl-1H-pyrazol-4-yl)-1H-pyrrolo[3,2-c]pyridin-6-ylamino)phenyl)(3-methoxyazetidin-1-yl)methanone]
2 nM | Cc1ncc(-c2ccc(Nc3cc4c(cn3)cc(-c3cnco3)n4C(=O)OC(C)C)c(Cl)c2)n1C [Example 106]
11 nM | CCN(C)C(=O)c1ccc(Nc2cc3[nH]c(-c4cnn(C)c4)cc3cn2)c(Cl)c1 [Example 144, 3-Chloro-N-ethyl-N-methyl-4-(2-(1-methyl-1H-pyrazol-4-yl)-1H-pyrrolo[3,2-c]pyridin-6-ylamino)benzamide]
6430 nM | CS(=O)(=O)n1c(-c2cn[nH]c2)cc2cnc(Nc3ccc(F)cc3)cc21 [Example 187, N-(4-fluorophenyl)-1-(methylsulfonyl)-2-(1H-pyrazol-4-yl)-1H-pyrrolo[3,2-c]pyridin-6-amine]
10 nM | COc1cc(CN2CCS(=O)(=O)CC2)ccc1Nc1cc2[nH]c(-c3cnn(C)c3)cc2cn1 [Example 116, N-(2-Methoxy-4-(thiomorpholinomethyl)phenyl)-2-(1-methyl-1H-pyrazol-4-yl)-1H-pyrrolo[3,2-c]pyridin-6-amine-S,S-dioxide]
288 nM | Cn1cc(-c2cc3cnc(Nc4ccc(OC(F)F)cc4Cl)cc3[nH]2)cn1 [Example 132, N-(2-Chloro-4-(difluoromethoxy)phenyl)-2-(1-methyl-1H-pyrazol-4-yl)-1H-pyrrolo[3,2-c]pyridin-6-amine]
77 nM | CC(=O)c1ccccc1Nc1cc2c(cn1)cc(-c1cnn(C)c1)n2C(=O)OC(C)(C)C [Example 9]
78 nM | CN(C)C(=O)c1ccc(Nc2cc3c(cn2)cc(-c2cnn(C)c2)n3-c2ccccn2)c(Cl)c1 [Example 94]
94 nM | CN(C)C(=O)c1ccc(Nc2cc3c(cn2)cc(-c2cnn(C)c2)n3-c2ncccn2)c(Cl)c1 [Example 93]

From patent US9371319B2, “Pyrrolopyridineamino derivatives as MPS1 inhibitors” (priority 2011, dated 2016)
